Here are results for 3 compounds from US5477857A, “Diagnostic uses of hydrazinoadenosines” (priority 1993, dated 1995).

Data set [1] deals with circumflex coronary artery. As to the kind of experiment: Circumflex coronary blood flow in anesthetized dog, electromagnetic flow probes. The data set is classed as in vivo. To be noted: for increase in circumflex coronary blood flow: adenosine 372 μg/kg/min, Compound A 1.0 μg/kg/min. On the procedure:
An anesthetized dog was prepared for cardiovascular function testing.

A short description of data set [2]: Systemic blood pressure response in anesthetized dog. To be noted: infusion: adenosine 372 μg/kg/min, Compound A 1 μg/kg/min. The protocol: An anesthetized dog was prepared for cardiovascular function testing. Electromagnetic flow probes were placed on the circumflex coronary artery and the left anterior descending coronary artery. Systemic systolic and diastolic blood pressure and heart rate were also measured.

For data set [3], the system named is circumflex coronary artery. The data set can be described thus: Thallium-201 scintigram in anesthetized dogs with stenosed circumflex coronary artery. The class given is in vivo. Conditions: dog, adenosine 372 μg/kg/min for 6 minutes, Compound A 0.6 μg/kg/min. The text has this: Dogs were anesthetized and their circumflex coronary artery was stenosed to produce a cardiac perfusion deficit.

Data set [4] relates to coronary arterioles. Conditions: background, cited from earlier work.
For data set [5] the following is noted: literature; cited from earlier work.
Data set [6] has as its target A2a (coronary) (Cavia porcellus, UniProt P46616). The protocol: An isolated guinea pig heart preparation was set up using well-known techniques. The heart was perfused with a constant flow pump through the coronary vessels with a oxygenated balanced salt solution. The coronary perfusion pressure and the EKG were measured. Under constant flow, a decrease in coronary perfusion pressure indicates dilation (A2a effect).

Data set [7] addresses T1, A1 (EKG) (Cavia porcellus, UniProt P47745).
T1 construct: An isolated guinea pig heart preparation was set up using well-known techniques; from tissue; host or cells: isolated perfused guinea pig heart
T1 sequence (P47745 1-326): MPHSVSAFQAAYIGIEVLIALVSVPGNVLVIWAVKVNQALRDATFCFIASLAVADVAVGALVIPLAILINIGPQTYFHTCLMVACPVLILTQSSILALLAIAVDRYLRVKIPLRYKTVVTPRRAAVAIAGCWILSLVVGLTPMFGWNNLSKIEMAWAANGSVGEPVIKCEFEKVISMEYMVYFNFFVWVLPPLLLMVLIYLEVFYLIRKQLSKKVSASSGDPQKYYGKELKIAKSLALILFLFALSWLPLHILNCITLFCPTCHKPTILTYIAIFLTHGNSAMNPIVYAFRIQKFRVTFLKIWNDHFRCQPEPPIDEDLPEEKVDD
As to the kind of experiment: A50 for decrease in heart rate or conduction velocity on the EKG (A1 effect) in the isolated guinea pig heart.

[8] abbreviates: infusion: adenosine 372 μg/kg/min, Compound A 1 μg/kg/min.

A2a (coronary), sequence (P46616 whole entry, the tested form may be a part): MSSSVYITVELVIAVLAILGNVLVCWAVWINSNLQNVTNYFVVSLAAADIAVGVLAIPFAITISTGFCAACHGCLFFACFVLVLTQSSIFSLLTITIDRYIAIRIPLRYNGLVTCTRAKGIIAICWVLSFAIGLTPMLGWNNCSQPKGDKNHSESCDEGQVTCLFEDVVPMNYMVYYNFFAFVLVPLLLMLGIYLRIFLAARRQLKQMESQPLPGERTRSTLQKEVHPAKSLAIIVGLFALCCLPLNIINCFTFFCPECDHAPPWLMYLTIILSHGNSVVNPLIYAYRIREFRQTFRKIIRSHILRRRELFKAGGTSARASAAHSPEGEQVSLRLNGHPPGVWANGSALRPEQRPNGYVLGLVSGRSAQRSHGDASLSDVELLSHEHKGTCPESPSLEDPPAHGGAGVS

On to `Nc1ncnc2c1ncn2[C@@H]1O[C@H](CO)[C@@H](O)[C@H]1O` [Adenosine, adenosine], for which the “increase in circumflex coronary blood flow” value in data set [1] is listed as 300%. For the same compound, the “CHANGE IN […] FLOW” value in data set [1] (setting [8]) was “+300%”. Further, in data set [2], the “CHANGE IN SYSTOLIC BLOOD PRESSURE” value is reported as -25% and the “DURATION OF RESPONSE” value came to 5 min. In data set [3], the “perfusion defect shown on thallium-201 scintigram” value was “clearly showed a perfusion defect”. Besides, the “duration of coronary blood flow effect” value in data set [4] is “short-lasting”. Besides, the “heart block” value in data set [4] (particularly at doses near 1 mg/kg) is given as “even blocks (stops) the heart beat”.
Consider `CCNC(=O)[C@H]1O[C@@H](n2cnc3c(N)nc(NCCc4ccc(CCC(=O)O)cc4)nc32)[C@H](O)[C@@H]1O` [CGS 21680], for which, in data set [5], the “duration of significant hypotensive response” value was “more than 24 hrs” and the reflex tachycardia entry is “significant reflex tachycardia”.
In the case of `Nc1nc(NN=CC2CCCCC2)nc2c1ncn2[C@@H]1O[C@H](CO)[C@@H](O)[C@H]1O` [Compound A], the “S[…] A1/A2a” value in data set [6] (A50 EKG (A1) over A50 coronary (A2a)) is recorded as 15,000. Also, the “potency relative to adenosine in causing coronary vasodilation” value in data set [6] (isolated guinea pig heart, vs adenosine) is 250 times. The EC50 is 0.2 nM in data set [6] (read-out: A50 CORONARY (A2a EFFECT), isolated guinea pig heart, concentration producing a 50% maximal response) and 3000 nM in data set [7]. Besides, the “increase in circumflex coronary blood flow” value in data set [1] is listed as 500%. In data set [1] (setting [8]), the “CHANGE IN CIRCUMFLEX CORONARY FLOW” value was “+500%”. For the same compound, the “DURATION OF RESPONSE” value in data set [2] is listed as 15 min.
